Test results reported in publication PMC7433010, “Exploration of multi‐target effects of 3‐benzoyl‐5‐hydroxychromen‐2‐one in Alzheimer’s disease cell and mouse models” (Aging Cell, 2020).

What was measured:
[1] = biological target: T1, His‐tagged ∆K280 TauRD protein (Homo sapiens, UniProt P10636, DEL597-597); test: Thioflavin T binding assay for TauRD aggregation; assay type: biochemical; conditions: 10 µM, 2 days at 37°C; without compound 16,856 AU
T1 construct: containing residues 244–372 of the full‐length 4R2N Tau441; added start Met (ATG codon in forward primer) (N); made in house; host or cells: E. coli BL21(DE3)pLysS
Description: Although known to reduce Aβ neurotoxicity (Lorenzo & Yankner, 1994), congo red was also reported as an agonist to drive aggregation within 293 cells expressing full‐length tau isoform htau40 (Bandyopadhyay, Li, Yin, & Kuret, 2007). Thus, we further examined the effects of congo red and tested chalcones on Tau misfolding using prokaryotic His‐tagged wild‐type (WT) and ∆K280 pET‐28a(+)‐TauRD proteins (Figure S3a) using thioflavin T binding assay and transmission electron microscopy (TEM) examination. […]
For thioflavin T binding assay, TauRD protein (20 μM in final 50 μl) was incubated with tested compounds (1−10 μM) in 150 mM NaCl and 20 mM Tris-HCl, pH 8.0, at 37°C for 48 h to form aggregates. […] Thioflavin T fluorescence intensity of samples was recorded by using a microplate reader (Bio-Tek FLx800), with excitation 420 nm and emission 485 nm filter combination.
Figure S3. TauRD-His proteins and Tau aggregation monitored by thioflavin T fluorescence and TEM. […] TauRD protein (20 μM in 50 μl buffer) was incubated with congo red, licochalcone A, or LM compounds (1−10 μM) at 37°C for 48 h, and aggregation was monitored by measuring thioflavin T fluorescence intensity (n = 3). p values: comparisons between 0 h and 48 h (^###: p < 0.001), wild type versus ΔK280 (^&&&: p < 0.001), or with and without compound addition (**: p < 0.01, ***: p < 0.001). […]

[2] = test system: sarkosyl‐insoluble Tau; test: TEM of sarkosyl‐insoluble Tau from STZ‐treated 3 × Tg‐AD mice; assay type: in vivo, mouse; conditions: STZ/LM‐031 mice
Description: Figure S7. Body weight, blood glucose, open field task, NeuN immunoreactivity, and TEM of sarkosyl-insoluble tau in STZ-treated 3×Tg-AD mice. (a) Body weight and blood glucose of the mice. […] (c) Representative IHC images for NeuN and intensity quantification in the hippocampus of mice. DG, dentate gyrus; CA1 and CA3, Cornu Ammonis areas 1 and 3. (d) TEM of sarkosyl-insoluble tau. p values, STZ vs. – STZ mice or STZ/LM-031 vs. STZ mice. *: p < 0.05, ^##: p < 0.01, ^##^#: p < 0.001. (one-way ANOVA with a post hoc Tukey test)

[3] = test system: CREB; test: Western blot of CREB in hippocampus of STZ‐treated 3 × Tg‐AD mice; assay type: in vivo, mouse; conditions: among the three groups
Experimental: In addition, isolated hippocampal and cortex tissues from transgenic mice (as described in Animal studies) were homogenized and extracted proteins (10 µg) were separated and blotted. After being blocked, the membranes were probed with antibody against mouse NRF2 (1:500; Sigma-Aldrich), CREB (1:500; Millipore), pCREB (S133) (1:1000; Millipore), or GAPDH (1:1000; MDBio), and the immune complexes detected as described above.
Mice harboring APPSwe, PS1M146V, and […] transgenes (3×Tg-AD) (Oddo et al., 2003) were purchased from the Jackson Laboratory (004807; Bar Harbor, ME, USA). Six-month-old male homozygous 3×Tg-AD mice were group housed at 20–25°C and 60% relative humidity under a daily 12-h light/12-h dark cycle, with assess to food and water ad libitum. Mice were randomly divided into 3 groups: – streptozocin (STZ), STZ, and STZ/LM-031 (n = 10 per group). STZ-induced hyperglycemia was used to accelerate the development of AD phenotype (Chen et al., 2014). Briefly, the mice were fasted for 12 h each day prior to intraperitoneal (i.p.) injection of STZ ([…]; Sigma-Aldrich) or vehicle (0.1 M sodium citrate pH4.5) for 4 times (days 2, 3, 9, and 10) (Chen et al., 2019). Mouse body weight was measured and blood glucose level was measured on days 1, 8, 15, 22, and 29 using a blood glucose meter (Bioland Technology, Taipei, Taiwan). […]

T1 sequence (P10636 with tags, fused parts or gaps isoform P10636-8 DEL280-280): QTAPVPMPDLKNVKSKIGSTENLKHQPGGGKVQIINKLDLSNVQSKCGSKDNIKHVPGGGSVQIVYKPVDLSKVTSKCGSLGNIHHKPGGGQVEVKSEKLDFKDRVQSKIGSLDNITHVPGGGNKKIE

Structure (SMILES): COc1ccc(C(=O)/C=C/c2cc(Br)ccc2O)cc1 [LM‐004]
- ΔK280 TauRD aggregation (thioflavin T fluorescence) [1]: 6,758 AU

Structure (SMILES): O=C(c1ccccc1)c1cc2c(O)cccc2oc1=O [LM‐031, 3‐benzoyl‐5‐hydroxychromen‐2‐one]
- sarkosyl‐insoluble Tau aggregates by TEM [2]: reduced Tau aggregates
- relative total CREB level in hippocampus [3]: not significantly different

Structure (SMILES): Nc1c(/N=N/c2ccc(-c3ccc(/N=N/c4cc(S(=O)(=O)O)c5ccccc5c4N)cc3)cc2)cc(S(=O)(=O)O)c2ccccc12 [congo red, reference compound]
- ΔK280 TauRD aggregation (thioflavin T fluorescence) [1]: 4,774 AU
